Here are results for 14 molecules from patent publication US20040138301A1, “Chemical uncouplers for the treatment of obesity” (priority 2002, published 2004).

A word on the EC50: it is the concentration at which the effect is half-maximal. The Emax is the size of the effect at its maximum, as opposed to the concentration needed.

Where only a bound is given, the exact number is not on record here.

The subject of one data set is HEP-G2 cells. As to the kind of experiment: cells. The note with it: Homo sapiens, HepG2, 3 h, read-out: HEP-G2 EC50. The protocol:
Assay (I): Glucose utilisation in a human hepatocytes cell line (HEP-G2 cells)
The assay measures indirectly the activity of the respiratory chain in HEP-G2 cells by using D-(3-^3H(N))-glucose. The ^3H-proton will first be released during the metabolism of glucose where it will be incorporated into water. The water is thereafter separated from the D-(3-^3H(N))-glucose by evaporation. Finally, the radioactivity in the water is determined using a Topcounter.
HEP-G2 cells obtained from ATCC (Maryland, USA), are cultured in assay medium (MEM medium) with the following addition 1× non-essential amino acids (M7145, 2 mM glutamine, 100 units/ml penicillin and streptomycin, 0.0075% sodium bicarbonate, 1 mM sodium pyrovate and 0.5% BSA (Bovin Serum Albumin, Sigma Missouri, USA)) at 37° C. and 5% CO2. All media are obtained by Gibco (Life Technologies, Maryland, USA) where not otherwise mentioned.
At day zero the cells are harvested using trypsin-EDTA and washed in assay medium using centrifugation. […] The cells are then incubated at 37° C. and 5% CO2 overnight.
The next day the compounds to be tested are diluted in DMSO (Sigma, Missouri, USA) to 100 times final concentration. They are then diluted to a final concentration in assay medium containing 10 μCi/ml D-(3-^3H(N))-glucose (PerkinElmer Life Sciences Inc., Boston, USA). The medium is removed from the cells and 200 μl of the compound dilutions are added in duplicates. The cells are then incubated for another 3 hours at 37° C. and 5% CO2. Finally the cells are lysed by adding 50 μl 10% TCA (trichloroacetic acid). 300 μl of sterile water is then added to the 24-wells that surrounds the StripPlate wells. The plate is sealed with Top-seal-tape (Packard, PerkinElmer Life Sciences Inc., Boston, USA) and the plate is incubated in a heating cupboard at 50° C. to equilibrium the radioactive water formed in the respiratory chain into the water in the 24-well plate by evaporate. The plates incubate for 8 hours where the heating cupboard is turned off. The top seal is removed when the samples have reached room temperature. One ml scintillation liquid (Packard Microscient, PerkinElmer Life Sciences Inc., Boston, USA) is added to all the samples and the radioactivity is determined using a Topcounter (Packard, PerkinElmer Life Sciences Inc., Boston, USA). Non-specific activity is determined by evaporating 200 μl of the dilution medium containing the D-(3-^3H(N))-glucose into 300 μl sterile water, and total radioactivity is determined by counting 5 μl assay medium with 10 μCi/ml D-(3-^3H(N))-glucose.
The cpm (counts per minute) representing the non-specific radioactivity in the D-(3-^3H(N))-glucose is subtracted from all incubated values. Then mean basal value (samples without any compound added) is subtracted from the values of all stimulated samples (samples added different concentrations of the different test compounds). All these calculations are done using GraphPad Prism 3.0 (GraphPad software, Inc.). The maximal stimulation caused by the test compounds is calculated in percentage of maximal stimulation caused by either DNP or FCCP.
When calculating the concentration-response curve the maximal glucose utilisation stimulated by FCCP or DNP (subtracted non-specific and basal values) is converted to 100% and all the other values are expressed in percentage of this value. Using these percentage values and the compound concentration a concentration-response curve is calculated using sigmoidal dose-response (variable slope) equation (all the calculations are done by GraphPad Prism 3.0 (GraphPad software, Inc.));
Y=Bottom+(Top−Bottom)/(1+10^((LogEC50-X)*slope))
X is the logarithm of the molar concentration of the test compound.
Y is the degree of stimulation caused by the compound measured as a percentage of the maximal stimulation achieved by use of FCCP or DNP.
The results achieved with these concentrations are used to determine the slope in this area using the following equation: […]
Turning to `N#Cc1ccc(NC(=O)c2cc(C(F)(F)F)cc(C(F)(F)F)c2)cc1C(F)(F)F` [Example 6, N-1-[4-Cyano-3-(Trifluoromethyl)Phenyl]-3,5-Di(Trifluoromethyl)Benzamide], the concentration giving a half-maximal response (EC50) was 1.6 µM.
The same measure, in the same setting: with `O=C(Nc1ccc([N+](=O)[O-])cc1Cl)c1ccc2ccccc2c1O` [Example 8, 2′-Chloro-1-Hydroxy-4′-Nitro-2-Naphthanilide] the figure was 12 µM.
On the same count and under the same terms, with `N#Cc1c(-c2ccc(Cl)cc2)[nH]c(C(F)(F)F)c1Br` [Example 23, 4-Bromo-2-(4-Chlorophenyl)-5-Trifluoromethyl-1H-Pyrrole-3-Carbonitrile] the figure was 1.75 µM.

The same data set, now with this note: Homo sapiens, HepG2, 3 h, read-out: HEP-G2 EC50, HEP-G2 cells, glucose utilisation, 3 hours incubation.
Consider `COc1ccc(O)c([N+](=O)[O-])c1` [Example 2, 4-Methoxy-2-Nitrophenol], for which the concentration for a half-maximal effect (EC50) was determined as 290 µM.
On the same count and under the same terms, as for `CC(=O)c1ccc(O)c([N+](=O)[O-])c1` [Example 3, 4-Hydroxy-3-Nitroacetophenone], the figure is 270 µM; as for `O=C(Nc1ccc(Br)cc1Cl)c1cc(Br)ccc1O` [Example 9, N-(2-Chloro-4-Bromophenyl)-5-Bromosalicylanilide], 2.3 µM.
Same read-out and setting: with `CC(C)(C)c1cc(/C=N/C(C#N)=C(\N)C#N)cc(C(C)(C)C)c1O` [Example 17, 2-Amino-S-[(3,5-Di-Tert-Butyl-4-Hydroxybenzylidone)-Amino]-But-2-Enedinitrile] the figure was 6 µM; with `CCc1cc(C#N)cc2c(C)c(C)[nH]c12` [Example 22, 2,3-Dimethyl-5-Cyano-7-Ethylindole], 91 µM.
Consider `N#Cc1cc(NC(=O)c2cccc(C(F)(F)F)c2)ccc1Sc1ccccc1` [Example 24, N-(3-Cyano-4-Phenylsulfanyl-Phenyl)-3-Trifluoromethyl-Benzamide], for which the concentration for a half-maximal effect (EC50) amounted to 42 µM.
Same read-out and setting: with `Cc1cc(C)c2[nH]cc(C=C(C#N)C#N)c2c1` [Example 28, 2-(5,7-Dimethyl-1H-Indol-3-Ylmethylene)-Malononitrile] the figure was 35.5 µM; with `N#CC(C#N)=Cc1c[nH]c2ccc(Br)cc12` [Example 29, 2-(5-Bromo-1H-Indol-3-Ylmethylene)-Malononitrile], 13 µM.
In the case of `Cc1ccc2[nH]cc(C=C(C#N)C#N)c2c1` [Example 31, 2-((5-Methyl-1H-Indol-3-Yl)Methylene)Malononitrile], the concentration giving a half-maximal response (EC50) is not below 300 µM.
On the same count and under the same terms, as for `CC(C)c1cccc(C(=O)Nc2ccc([N+](=O)[O-])cc2Cl)c1O` [Example 38, N-(2-Chloro-4-Nitro-Phenyl)-2-Hydroxy-3-Isopropyl-Benzamide], the figure is 3.35 µM.
With `Cc1ccc(C(C)C)c(O)c1C(=O)Nc1ccc([N+](=O)[O-])cc1Cl` [Example 39, N-(2-Chloro-4-Nitro-Phenyl)-2-Hydroxy-3-Isopropyl-6-Methyl-Benzamide], the half-maximal effective concentration (EC50) amounted to 6 µM.

Still in this data set, the particulars now being: Homo sapiens, HepG2, read-out: HEP-G2 Emax (% of FCCP).
In the case of `N#Cc1ccc(NC(=O)c2cc(C(F)(F)F)cc(C(F)(F)F)c2)cc1C(F)(F)F` [Example 6, N-1-[4-Cyano-3-(Trifluoromethyl)Phenyl]-3,5-Di(Trifluoromethyl)Benzamide], the maximal effect (Emax) was 95%.
On the same count and under the same terms, as for `O=C(Nc1ccc([N+](=O)[O-])cc1Cl)c1ccc2ccccc2c1O` [Example 8, 2′-Chloro-1-Hydroxy-4′-Nitro-2-Naphthanilide], the figure is 80%; as for `N#Cc1c(-c2ccc(Cl)cc2)[nH]c(C(F)(F)F)c1Br` [Example 23, 4-Bromo-2-(4-Chlorophenyl)-5-Trifluoromethyl-1H-Pyrrole-3-Carbonitrile], 117%.

Staying with this data set, now noted: Homo sapiens, HepG2, read-out: HEP-G2 Emax (% of FCCP), HEP-G2 cells, maximal stimulation relative to FCCP.
Turning to `COc1ccc(O)c([N+](=O)[O-])c1` [Example 2, 4-Methoxy-2-Nitrophenol], the Emax was found to be 35%.
On the same count and under the same terms, with `CC(=O)c1ccc(O)c([N+](=O)[O-])c1` [Example 3, 4-Hydroxy-3-Nitroacetophenone] the figure was 75%; with `O=C(Nc1ccc(Br)cc1Cl)c1cc(Br)ccc1O` [Example 9, N-(2-Chloro-4-Bromophenyl)-5-Bromosalicylanilide], 100%; with `CC(C)(C)c1cc(/C=N/C(C#N)=C(\N)C#N)cc(C(C)(C)C)c1O` [Example 17, 2-Amino-S-[(3,5-Di-Tert-Butyl-4-Hydroxybenzylidone)-Amino]-But-2-Enedinitrile], 45%.
Same read-out and setting: as for `CCc1cc(C#N)cc2c(C)c(C)[nH]c12` [Example 22, 2,3-Dimethyl-5-Cyano-7-Ethylindole], the figure is 100%.
Same read-out and setting: with `N#Cc1cc(NC(=O)c2cccc(C(F)(F)F)c2)ccc1Sc1ccccc1` [Example 24, N-(3-Cyano-4-Phenylsulfanyl-Phenyl)-3-Trifluoromethyl-Benzamide] the figure was 65%; with `Cc1cc(C)c2[nH]cc(C=C(C#N)C#N)c2c1` [Example 28, 2-(5,7-Dimethyl-1H-Indol-3-Ylmethylene)-Malononitrile], 35%.
For the molecule `N#CC(C#N)=Cc1c[nH]c2ccc(Br)cc12` [Example 29, 2-(5-Bromo-1H-Indol-3-Ylmethylene)-Malononitrile], the maximal effect (Emax) turned out to be 65%.
Still for that read-out and setting: with `Cc1ccc2[nH]cc(C=C(C#N)C#N)c2c1` [Example 31, 2-((5-Methyl-1H-Indol-3-Yl)Methylene)Malononitrile] the figure was 0%; with `CC(C)c1cccc(C(=O)Nc2ccc([N+](=O)[O-])cc2Cl)c1O` [Example 38, N-(2-Chloro-4-Nitro-Phenyl)-2-Hydroxy-3-Isopropyl-Benzamide], 105%; with `Cc1ccc(C(C)C)c(O)c1C(=O)Nc1ccc([N+](=O)[O-])cc1Cl` [Example 39, N-(2-Chloro-4-Nitro-Phenyl)-2-Hydroxy-3-Isopropyl-6-Methyl-Benzamide], 55%.

The data set is the same for the next values; noted with them: Homo sapiens, HepG2, read-out: HEP-G2 Emax (μM).
As to `N#Cc1ccc(NC(=O)c2cc(C(F)(F)F)cc(C(F)(F)F)c2)cc1C(F)(F)F` [Example 6, N-1-[4-Cyano-3-(Trifluoromethyl)Phenyl]-3,5-Di(Trifluoromethyl)Benzamide], the EC (Emax) came to 10 µM.
Still for that read-out and setting: with `O=C(Nc1ccc([N+](=O)[O-])cc1Cl)c1ccc2ccccc2c1O` [Example 8, 2′-Chloro-1-Hydroxy-4′-Nitro-2-Naphthanilide] the figure was 100 µM; with `N#Cc1c(-c2ccc(Cl)cc2)[nH]c(C(F)(F)F)c1Br` [Example 23, 4-Bromo-2-(4-Chlorophenyl)-5-Trifluoromethyl-1H-Pyrrole-3-Carbonitrile], 30 µM.

The data set is the same for the next values; noted with them: Homo sapiens, HepG2, read-out: HEP-G2 Emax (μM), HEP-G2 cells, concentration at which Emax is achieved (CEmax).
In the case of `COc1ccc(O)c([N+](=O)[O-])c1` [Example 2, 4-Methoxy-2-Nitrophenol], the EC (Emax) came out at 1000 µM.
Regarding `CC(=O)c1ccc(O)c([N+](=O)[O-])c1` [Example 3, 4-Hydroxy-3-Nitroacetophenone], the EC (Emax) worked out at 1000 µM.
The same measure, in the same setting: as for `O=C(Nc1ccc(Br)cc1Cl)c1cc(Br)ccc1O` [Example 9, N-(2-Chloro-4-Bromophenyl)-5-Bromosalicylanilide], the figure is 10 µM.
Still for that read-out and setting: as for `CC(C)(C)c1cc(/C=N/C(C#N)=C(\N)C#N)cc(C(C)(C)C)c1O` [Example 17, 2-Amino-S-[(3,5-Di-Tert-Butyl-4-Hydroxybenzylidone)-Amino]-But-2-Enedinitrile], the figure is 30 µM.
In the case of `CCc1cc(C#N)cc2c(C)c(C)[nH]c12` [Example 22, 2,3-Dimethyl-5-Cyano-7-Ethylindole], the EC (Emax) was 1000 µM.
Still for that read-out and setting: as for `N#Cc1cc(NC(=O)c2cccc(C(F)(F)F)c2)ccc1Sc1ccccc1` [Example 24, N-(3-Cyano-4-Phenylsulfanyl-Phenyl)-3-Trifluoromethyl-Benzamide], the figure is 100 µM; as for `Cc1cc(C)c2[nH]cc(C=C(C#N)C#N)c2c1` [Example 28, 2-(5,7-Dimethyl-1H-Indol-3-Ylmethylene)-Malononitrile], 300 µM; as for `N#CC(C#N)=Cc1c[nH]c2ccc(Br)cc12` [Example 29, 2-(5-Bromo-1H-Indol-3-Ylmethylene)-Malononitrile], 30 µM.
Same read-out and setting: with `CC(C)c1cccc(C(=O)Nc2ccc([N+](=O)[O-])cc2Cl)c1O` [Example 38, N-(2-Chloro-4-Nitro-Phenyl)-2-Hydroxy-3-Isopropyl-Benzamide] the figure was 30 µM; with `Cc1ccc(C(C)C)c(O)c1C(=O)Nc1ccc([N+](=O)[O-])cc1Cl` [Example 39, N-(2-Chloro-4-Nitro-Phenyl)-2-Hydroxy-3-Isopropyl-6-Methyl-Benzamide], 10 µM.

Still in this data set, the particulars now being: concentration with sign of toxicity (significant drop in glucose utilisation).
In the case of `N#Cc1ccc(NC(=O)c2cc(C(F)(F)F)cc(C(F)(F)F)c2)cc1C(F)(F)F` [Example 6, N-1-[4-Cyano-3-(Trifluoromethyl)Phenyl]-3,5-Di(Trifluoromethyl)Benzamide], the “HEP-G2 Tox” value is given as “Tox 0.1 mM”.

Staying with this data set, now noted: human, 3 h.
Regarding `CC(C)(C)c1cc(/C=N/C(C#N)=C(\N)C#N)cc(C(C)(C)C)c1O` [Example 17, 2-Amino-S-[(3,5-Di-Tert-Butyl-4-Hydroxybenzylidone)-Amino]-But-2-Enedinitrile], the “HEP-G2 Tox” value is reported as “Tox 0.1 mM”.
